Assay in all cases: In vitro competitive activity-based protein profiling (gel-based, FP-Rh or HT-01 probe)
What all share (format): biochemical

One assay deals with T1, ABHD6 (Mus musculus, UniProt Q8R2Y0).
T1 construct: Proteomes (mouse brain membrane fraction or cell lysates); from tissue; host or cells: mouse brain membrane fraction (or cell lysates, not specified)
T1 sequence (Q8R2Y0 1-336): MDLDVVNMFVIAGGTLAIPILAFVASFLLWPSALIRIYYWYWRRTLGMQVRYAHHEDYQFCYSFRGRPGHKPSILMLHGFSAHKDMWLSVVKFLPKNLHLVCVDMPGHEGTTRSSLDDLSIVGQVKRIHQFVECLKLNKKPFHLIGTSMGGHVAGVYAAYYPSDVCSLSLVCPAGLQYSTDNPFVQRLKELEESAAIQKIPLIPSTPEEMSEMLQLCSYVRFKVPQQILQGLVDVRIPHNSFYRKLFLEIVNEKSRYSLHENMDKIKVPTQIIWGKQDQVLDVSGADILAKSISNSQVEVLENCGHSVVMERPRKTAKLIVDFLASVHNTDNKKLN
The settings on record: for inhibition at 1 µM: 1 μM inhibitor, read-out: % Inhibition at 1 μM, C = ABHD6; for inhibition at 10 µM: 10 μM inhibitor, read-out: % Inhibition at 10 μM, C = ABHD6; for IC50: mouse brain membrane fraction or cell lysates, 30 min preincubation at 37° C., read-out: Mouse (IC50 value, nM) ABHD6. The essentials: (§1)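 Gel-based read-out: fluorescent band intensity after SDS-PAGE reflected remaining hydrolase activity. Inhibitors were preincubated 30 min at 37° C with 1.0 mg/mL mouse brain membrane or lysate proteome before a further 30 min at 37° C with FP-Rh or HT-01 probe.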

A further assay deals with T2, FAAH (Mus musculus, UniProt O08914).
T2 construct: Proteomes (mouse brain membrane fraction or cell lysates); from tissue; host or cells: mouse brain membrane fraction (or cell lysates, not specified)
T2 sequence (O08914 1-579): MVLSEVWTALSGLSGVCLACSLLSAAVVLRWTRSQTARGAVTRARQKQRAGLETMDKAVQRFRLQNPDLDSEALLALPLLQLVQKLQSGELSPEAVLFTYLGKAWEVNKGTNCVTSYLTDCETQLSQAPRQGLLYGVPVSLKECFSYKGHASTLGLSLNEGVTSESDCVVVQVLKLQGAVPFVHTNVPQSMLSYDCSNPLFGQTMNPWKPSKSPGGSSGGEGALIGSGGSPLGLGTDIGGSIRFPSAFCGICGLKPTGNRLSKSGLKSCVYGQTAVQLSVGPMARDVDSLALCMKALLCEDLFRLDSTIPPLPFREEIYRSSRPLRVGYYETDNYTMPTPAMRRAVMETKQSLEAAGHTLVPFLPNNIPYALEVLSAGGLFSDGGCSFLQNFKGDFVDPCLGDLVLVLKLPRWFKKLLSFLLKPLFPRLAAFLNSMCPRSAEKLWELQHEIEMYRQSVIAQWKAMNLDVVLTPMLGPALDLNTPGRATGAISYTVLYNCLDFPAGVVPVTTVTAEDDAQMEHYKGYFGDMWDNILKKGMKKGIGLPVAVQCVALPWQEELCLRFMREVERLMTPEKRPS
Particulars: for inhibition at 1 µM: 1 μM inhibitor, read-out: % Inhibition at 1 μM, B = FAAH; for inhibition at 10 µM: 10 μM inhibitor, read-out: % Inhibition at 10 μM, B = FAAH; for IC50: mouse brain membrane fraction or cell lysates, 30 min preincubation at 37° C., read-out: Mouse (IC50 value, nM) FAAH. The essentials: as §1

The target of the next assay is T3, MAGL (Mus musculus, UniProt O35678).
T3 construct: Proteomes (mouse brain membrane fraction or cell lysates); from tissue; host or cells: mouse brain membrane fraction (or cell lysates, not specified)
T3 sequence (O35678 1-303): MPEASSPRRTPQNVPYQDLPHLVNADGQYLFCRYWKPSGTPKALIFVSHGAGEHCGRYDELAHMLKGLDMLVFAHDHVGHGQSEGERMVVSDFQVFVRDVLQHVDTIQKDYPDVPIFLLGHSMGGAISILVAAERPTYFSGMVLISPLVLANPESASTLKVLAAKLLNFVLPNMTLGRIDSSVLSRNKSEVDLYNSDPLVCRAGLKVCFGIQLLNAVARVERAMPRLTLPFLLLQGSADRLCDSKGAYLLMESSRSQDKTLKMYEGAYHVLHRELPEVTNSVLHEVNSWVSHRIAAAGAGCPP
The settings on record: for inhibition at 1 µM: 1 μM inhibitor; for inhibition at 10 µM: 10 μM inhibitor; for IC50: mouse brain membrane fraction or cell lysates, 30 min preincubation at 37° C., read-out: Mouse (IC50 value, nM) MAGL. The method, boiled down: as §1

The target of the next assay is T4, PLA2G7 (Mus musculus, UniProt Q60963).
T4 construct: Proteomes (mouse brain membrane fraction or cell lysates); from tissue; host or cells: mouse brain membrane fraction (or cell lysates, not specified)
T4 sequence (Q60963 22-440): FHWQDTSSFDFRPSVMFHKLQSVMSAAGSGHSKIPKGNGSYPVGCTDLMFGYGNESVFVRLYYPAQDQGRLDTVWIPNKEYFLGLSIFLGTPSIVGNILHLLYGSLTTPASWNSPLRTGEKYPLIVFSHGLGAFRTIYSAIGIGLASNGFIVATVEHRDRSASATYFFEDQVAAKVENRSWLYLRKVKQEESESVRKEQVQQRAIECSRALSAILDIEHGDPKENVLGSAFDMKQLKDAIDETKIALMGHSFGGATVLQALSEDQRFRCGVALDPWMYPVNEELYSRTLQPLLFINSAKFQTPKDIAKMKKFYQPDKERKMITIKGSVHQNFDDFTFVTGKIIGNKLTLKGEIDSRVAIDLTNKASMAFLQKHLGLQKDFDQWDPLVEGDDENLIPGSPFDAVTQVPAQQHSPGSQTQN
Particulars: for inhibition at 1 µM: 1 μM inhibitor, read-out: % Inhibition at 1 μM, D = PLA2G7; for inhibition at 10 µM: 10 μM inhibitor, read-out: % Inhibition at 10 μM, D = PLA2G7. The essentials:
as §1

SMILES strings stand for the structures.

In the case of `O=C(c1cnn(C(=O)N2CCN(Cc3cncnc3)CC2)c1)N1CCCC1` [Example 84, (4-(Pyrimidin-5-ylmethyl)piperazin-1-yl)(4-(pyrrolidine-1-carbonyl)-1H-pyrazol-1-yl)methanone], the inhibition at 1 µM on ABHD6, on FAAH, on MAGL and at PLA2G7 was < 25% throughout. Further, the inhibition at 10 µM at ABHD6 was 25 to 75%; on FAAH, < 25%; on MAGL, < 25%; at PLA2G7 it was > 75%.
Consider `Cc1cc(-c2ccccc2)ccc1CN1CCN(C(=O)n2cc(C(=O)N3CCCC3)cn2)CC1` [Example 85, (4-((3-Methyl-[1,1′-biphenyl]-4-yl)methyl)piperazin-1-yl)(4-(pyrrolidine-1-carbonyl)-1H-pyrazol-1-yl)methanone], for which the inhibition at 1 µM on ABHD6 is > 75%; on FAAH, > 75%; on MAGL, > 75%; on PLA2G7 it was < 25%. The inhibition at 10 µM at ABHD6, at FAAH, at MAGL and on PLA2G7 was > 75% throughout. The IC50 is 100 to 1000 nM at ABHD6, < 100 nM at FAAH and 100 to 1000 nM on MAGL.
As to `O=C(c1cnn(C(=O)N2CCN(Cc3ccc4c(c3)OCO4)CC2)c1)N1CCC1` [Example 86, Azetidin-1-yl(1-(4-(benzo[d][1,3]dioxol-5-ylmethyl)piperazine-1-carbonyl)-1H-pyrazol-4-yl)methanone], the inhibition at 1 µM on ABHD6 was 25 to 75%; on FAAH, > 75%; on MAGL it was < 25%; on PLA2G7, < 25%. Also, the inhibition at 10 µM on ABHD6, at FAAH, at MAGL and at PLA2G7 was > 75% each time.
As to `O=C(c1cnn(C(=O)N2CCN(Cc3ccncc3)CC2)c1)N1CCC1` [Example 87, Azetidin-1-yl(1-(4-(pyridin-4-ylmethyl)piperazine-1-carbonyl)-1H-pyrazol-4-yl)methanone], the inhibition at 1 µM on ABHD6, on FAAH, on MAGL and at PLA2G7 was < 25% throughout. Besides, the inhibition at 10 µM was > 75% at ABHD6, > 75% at FAAH, < 25% on MAGL and > 75% on PLA2G7.
With `O=C(c1cnn(C(=O)N2CCN(Cc3cccnc3)CC2)c1)N1CCC1` [Example 88, Azetidin-1-yl(1-(4-(pyridin-3-ylmethyl)piperazine-1-carbonyl)-1H-pyrazol-4-yl)methanone], the inhibition at 10 µM at ABHD6 is > 75%; at FAAH, 25 to 75%; on MAGL, < 25%; at PLA2G7, > 75%.
As to `O=C(c1cnn(C(=O)N2CCN(Cc3ccccn3)CC2)c1)N1CCC1` [Example 89, Azetidin-1-yl(1-(4-(pyridin-2-ylmethyl)piperazine-1-carbonyl)-1H-pyrazol-4-yl)methanone], the inhibition at 10 µM at ABHD6 is 25 to 75%; on FAAH, > 75%; on MAGL, < 25%; on PLA2G7, > 75%.
Take `O=C(c1cnn(C(=O)N2CCN(Cc3ccncn3)CC2)c1)N1CCC1` [Example 90, Azetidin-1-yl(1-(4-(pyrimidin-4-ylmethyl)piperazine-1-carbonyl)-1H-pyrazol-4-yl)methanone]: the inhibition at 1 µM on ABHD6 and at PLA2G7 was < 25% each time. Also, the inhibition at 10 µM at ABHD6 is > 75%; at FAAH, 25 to 75%; on MAGL it was < 25%; on PLA2G7, > 75%.
As for `O=C(c1cnn(C(=O)N2CCN(Cc3nccs3)CC2)c1)N1CCC1` [Example 91, Azetidin-1-yl(1-(4-(thiazol-2-ylmethyl)piperazine-1-carbonyl)-1H-pyrazol-4-yl)methanone], the inhibition at 1 µM on ABHD6 and at PLA2G7 was < 25% throughout. The inhibition at 10 µM at ABHD6 is > 75%; on FAAH, > 75%; on MAGL it was < 25%; at PLA2G7, > 75%. Moreover, the IC50 at FAAH was > 1000 nM.
For the compound `O=C(c1cnn(C(=O)N2CCN(Cc3cncnc3)CC2)c1)N1CCC1` [Example 92, Azetidin-1-yl(1-(4-(pyrimidin-5-ylmethyl)piperazine-1-carbonyl)-1H-pyrazol-4-yl)methanone], the inhibition at 1 µM on ABHD6 and on PLA2G7 was < 25% throughout. For the same compound, the inhibition at 10 µM was > 75% on ABHD6, < 25% on FAAH, < 25% on MAGL and > 75% at PLA2G7.
`Cc1cc(-c2ccccc2)ccc1CN1CCN(C(=O)n2cc(C(=O)N3CCC3)cn2)CC1` [Example 93, Azetidin-1-yl(1-(4-((3-methyl-[1,1′-biphenyl]-4-yl)methyl)piperazine-1-carbonyl)-1H-pyrazol-4-yl)methanone]: the inhibition at 1 µM is > 75% at ABHD6, > 75% on FAAH, > 75% on MAGL and < 25% at PLA2G7. Moreover, the inhibition at 10 µM at ABHD6, on FAAH, on MAGL and on PLA2G7 was > 75% throughout. The IC50 on ABHD6 is 100 to 1000 nM; on FAAH, < 100 nM; on MAGL, 100 to 1000 nM.
Consider `O=C(N1CCCC1)n1cc(-c2ccccc2)cn1` [Example 103, (4-Phenyl-1H-pyrazol-1-yl)(pyrrolidin-1-yl)methanone], for which the inhibition at 10 µM at ABHD6 was < 25%; on FAAH it was > 75%; on MAGL, < 25%; on PLA2G7 it was > 75%.
For the compound `O=C(N1CCCC1)n1cc(-c2ccc(-c3ccccc3)cc2)cn1` [Example 106, (4-([1,1′-Biphenyl]-4-yl)-1H-pyrazol-1-yl)(pyrrolidin-1-yl)methanone], the inhibition at 1 µM is 25 to 75% at ABHD6 and < 25% at PLA2G7. Moreover, the inhibition at 10 µM is > 75% at ABHD6, < 25% on FAAH, < 25% on MAGL and 25 to 75% at PLA2G7.

As usually defined, the inhibition is how much of the control response was suppressed. What is called IC50 is the concentration at which inhibition is half-maximal.
